Target: T1, glucan synthase (GS) (Candida albicans, UniProt O13428)
T1 construct: Extraction of GS activity from membranes was performed at a protein concentration of 5 mg/mL in extraction buffer; endogenous in cells; host or cells: Candida albicans MY1055 (membrane fraction, detergent extraction, product entrapment)
Assay: Glucan synthase inhibition (polymerization assay, 96-well)
Assay type: biochemical
Details: glucan synthase prepared from Candida albicans MY1055; 60 min incubation at 22° C.; read-out: Candida Albicans GS IC50 (ng/mL) (converted)
Procedure: The in vitro evaluation of glucan synthase inhibitory activity of compounds was measured in a polymerization assay in 96-well format. Each well contained 100 μL of ^3H-UDPG at 0.5 mM (6000 to 8000 dpm/nmol), 50 mM HEPES pH 7.5 (Sigma), 10% w/v glycerol (Sigma), 1.5 mg/mL bovine serum albumin (Sigma A 9647. Lot 44H0190), 25 mM KF (Fisher), 1 mM EDTA (Gibco ULTRAPURE), 25 μM GTP-γ-S, enzyme sufficient to give 3 to 6 nmoles incorporation during the 60 min incubation at 22° C., and test compound added from wells in 3-fold serial dilutions in 100% DMSO (1 μL/well). The reaction was stopped by the addition of 100 μL of 20% trichloroacetic acid. Plates were chilled for a minimum of 10 min, and precipitated glucan collected by filtration on GF/C plates (Packard UNIFILTER®-96), washed with 5 cycles of water (about 1 mL/well each cycle) using a Packard FILTERMATE HARVESTER. 40 μL/well scintillation fluid (Packard ULTIMA GOLD TM-XR) was added and the sealed plates counted in a WALLAC BETA counter in top-counting mode at an efficiency of approximately 40%.
Stock solutions were stored at 10 mg/mL in DMSO at −20° C. For each new enzyme preparation, the initial titration performed started at 1 mg/mL, which was prepared by making a 10-fold dilution in DMSO (5 μL to 50 μL). 40 μL of this stock was placed in column 12 of a round-bottomed 96-well microtiter plate. 40 μL DMSO was added to columns 1 to 11 in the same row and ten 3-fold serial dilutions performed, by transferring 20 μL from column 12 to column 11 etc., with 4 mixings before each transfer. No test compound was transferred to from column 2 to column 1. Duplicate aliquots of 1 μL of all 12 dilutions were then transferred to the side walls of a 96-well Bioblock 1.1 mL plate (Fisher brand) to create two rows. Graphs of the primary data were created in PRISM software (the average of two determinations) using PRISM's curve fitting program (sigmoidal dose response non-linear regression). The amount of compound required to inhibit glucan synthase activity by 50% in this assay (IC50-ng/mL) was calculated.
Routine analysis was performed with glucan synthase (GS) prepared from Candida albicans MY1055 by the following procedure: MY1055 was grown in 10 liters YPD medium (10 g yeast extract, 20 g tryptone, 20 g glucose per liter) with vigorous shaking at 30° C., to early stationary phase. Cells were harvested by centrifugation, the pellet was washed and frozen at −70° C. until breakage. Thawed pellets were shaken with an equal volume of breakage buffer (50 mM HEPES pH 7.4, 10% glycerol, 1 mM EDTA, 1 mM PMSF, 1 mM DTT) and 4 times their weight of 0.5 mm acid washed glass beads for 2 hours at 4° C. Extent of breakage was assessed visually at 40× magnification. After low speed centrifugation to remove cell debris, the supernatant was centrifuged at 100,000×g for 60 min. to separate membranes plus ribosomes from cytoplasmic components. Membranes were further washed two additional times with breakage buffer using the same centrifugation conditions and finally suspended in breakage buffer at 25 to 30 mg/mL protein (Biorad) for storage at −70° C. Extraction of GS activity from membranes was performed at a protein concentration of 5 mg/mL in extraction buffer (50 mM NaPO4 pH 7.5, 0.1 M KCl, 0.1M Na citrate, 20% glycerol, 5 μM GTP-γ-S, 1 mM DTT, 1 mM PMSF, 3 μg/mL pepstatin) plus 0.25% W1 by gentle mixing at 4° C. for 60 min, followed by centrifugation at 100,000×g for 60 min. After centrifugation, clear supernatant was removed from a pellet consisting of a hard layer usually with small amounts of gelatinous unextracted membranes above it.
Trapping was initiated immediately by 5-fold dilution in trapping buffer (50 mM HEPES pH 7.5, 10 mM KF, 1 mM EDTA, 2 mg/mL BSA) plus 2.5 mM UDPG and 10 μM GTP-γ-S. After incubation at 25° C. for 60 to 90 minutes, glucan was harvested by low speed centrifugation (3,000×g, 10 min). […]

T1 sequence (O13428 1-1897): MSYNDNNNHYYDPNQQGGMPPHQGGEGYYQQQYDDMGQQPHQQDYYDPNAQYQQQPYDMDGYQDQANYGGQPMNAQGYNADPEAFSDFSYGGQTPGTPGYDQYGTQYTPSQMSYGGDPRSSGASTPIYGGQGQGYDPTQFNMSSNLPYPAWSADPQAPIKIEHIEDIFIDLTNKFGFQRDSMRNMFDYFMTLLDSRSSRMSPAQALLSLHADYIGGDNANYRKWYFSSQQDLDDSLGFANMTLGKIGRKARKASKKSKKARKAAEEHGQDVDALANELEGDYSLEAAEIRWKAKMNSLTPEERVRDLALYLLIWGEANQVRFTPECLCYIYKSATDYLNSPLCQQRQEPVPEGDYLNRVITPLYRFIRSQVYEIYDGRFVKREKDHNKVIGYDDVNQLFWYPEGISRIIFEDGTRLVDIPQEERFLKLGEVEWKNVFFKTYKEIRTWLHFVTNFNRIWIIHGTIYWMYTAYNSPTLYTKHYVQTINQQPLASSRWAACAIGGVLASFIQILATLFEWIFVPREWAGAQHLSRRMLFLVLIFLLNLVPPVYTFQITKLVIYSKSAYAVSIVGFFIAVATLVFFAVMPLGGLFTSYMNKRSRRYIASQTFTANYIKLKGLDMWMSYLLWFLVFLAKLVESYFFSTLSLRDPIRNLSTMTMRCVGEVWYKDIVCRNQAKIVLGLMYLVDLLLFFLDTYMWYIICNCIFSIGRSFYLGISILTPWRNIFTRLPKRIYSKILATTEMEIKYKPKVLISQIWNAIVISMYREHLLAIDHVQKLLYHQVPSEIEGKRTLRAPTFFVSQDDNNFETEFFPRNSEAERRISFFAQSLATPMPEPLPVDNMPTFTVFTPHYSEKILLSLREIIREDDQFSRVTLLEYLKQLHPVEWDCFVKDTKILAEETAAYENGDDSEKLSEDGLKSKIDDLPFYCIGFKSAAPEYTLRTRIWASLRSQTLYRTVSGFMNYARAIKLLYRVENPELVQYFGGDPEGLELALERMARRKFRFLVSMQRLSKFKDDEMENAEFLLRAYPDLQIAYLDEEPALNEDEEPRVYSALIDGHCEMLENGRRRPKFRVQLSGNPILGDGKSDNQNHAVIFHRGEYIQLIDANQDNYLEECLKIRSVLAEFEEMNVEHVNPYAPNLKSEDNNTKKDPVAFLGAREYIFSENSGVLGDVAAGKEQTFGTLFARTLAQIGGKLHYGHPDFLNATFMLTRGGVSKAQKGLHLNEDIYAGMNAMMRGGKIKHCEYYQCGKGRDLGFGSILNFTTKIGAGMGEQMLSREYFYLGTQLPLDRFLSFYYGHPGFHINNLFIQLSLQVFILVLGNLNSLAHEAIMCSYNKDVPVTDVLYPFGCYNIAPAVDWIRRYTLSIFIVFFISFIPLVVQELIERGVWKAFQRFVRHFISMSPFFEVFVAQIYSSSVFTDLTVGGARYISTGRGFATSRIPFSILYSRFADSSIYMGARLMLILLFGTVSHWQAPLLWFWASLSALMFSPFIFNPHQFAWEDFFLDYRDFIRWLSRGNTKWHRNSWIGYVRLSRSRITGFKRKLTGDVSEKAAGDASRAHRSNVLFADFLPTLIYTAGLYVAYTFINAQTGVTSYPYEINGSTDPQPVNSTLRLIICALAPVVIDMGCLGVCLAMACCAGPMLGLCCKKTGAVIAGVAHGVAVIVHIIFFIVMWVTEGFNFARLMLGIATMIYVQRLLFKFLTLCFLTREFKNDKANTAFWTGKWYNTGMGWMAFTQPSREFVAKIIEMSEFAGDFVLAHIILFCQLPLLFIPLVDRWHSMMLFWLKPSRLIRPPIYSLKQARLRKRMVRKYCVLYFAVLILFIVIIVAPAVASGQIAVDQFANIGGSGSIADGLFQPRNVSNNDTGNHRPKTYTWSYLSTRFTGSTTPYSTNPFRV
T1 sequence (O42825 1-195 partner limits assumed): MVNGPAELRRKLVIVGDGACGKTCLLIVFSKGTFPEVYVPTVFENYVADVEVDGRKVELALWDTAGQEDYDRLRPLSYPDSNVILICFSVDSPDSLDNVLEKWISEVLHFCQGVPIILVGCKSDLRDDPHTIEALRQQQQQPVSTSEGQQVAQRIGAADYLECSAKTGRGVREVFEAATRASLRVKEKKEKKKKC

| SMILES | IC50 |
| --- | --- |
| CNC1(CO[C@H]2[C@H](n3nnc(N)n3)C[C@@]34COC[C@]2(C)[C@@H]3CC[C@H]2C4=CC[C@@]3(C)[C@H](C(=O)O)[C@@](C)([C@H](C)C(C)C)CC[C@]23C)CCCCC1 [Example 32, (1S,4aR,6aS,7R,8R,10aR,10bR,12aR,14R,15R)-14-(5-amino-2H-tetrazol-2-yl)-8-[(1R)-1,2-dimethylpropyl]-15-[[1-(methylamino)cyclohexyl]methoxy]-1,6,6a,7,8,9,10,10a,10b,11,12,12a-dodecahydro-1,6a,8,10a-tetramethyl-4H-1,4a-propano-2H-phenanthro[1,2-c]pyran-7-carboxylic acid] | 11.7 nM |
| CC(C)[C@@H](C)[C@@]1(C)CC[C@]2(C)[C@H]3CC[C@@H]4[C@@]5(COC[C@@]4(C)[C@@H](OCCNCCCN(C)C)[C@H](n4nnc(N)n4)C5)C3=CC[C@@]2(C)[C@@H]1C(=O)O [Example 36, (1S,4aR,6aS,7R,8R,10aR,10bR,12aR,14R,15R)-14-(5-amino-2H-tetrazol-2-yl)-15-[2-[[3-(dimethylamino)propyl]amino]ethoxy]-8-[(1R)-1,2-dimethylpropyl]-1,6,6a,7,8,9,10,10a,10b,11,12,12a-dodecahydro-1,6a,8,10a-tetramethyl-4H-1,4a-propano-2H-phenanthro[1,2-c]pyran-7-carboxylic acid] | 8.77 nM |
| CC(C)C(C(C)O[C@H]1[C@H](n2nnc(N)n2)C[C@@]23COC[C@]1(C)[C@@H]2CC[C@H]1C3=CC[C@@]2(C)[C@H](C(=O)O)[C@@](C)([C@H](C)C(C)C)CC[C@]12C)N(C)C (stereo partly drawn) [Example 49, (1S,4aR,6aS,7R,8R,10aR,10bR,12aR,14R,15R)-14-(5-amino-2H-tetrazol-2-yl)-15-[2-(dimethylamino)-1,3-dimethylbutoxy]-8-[(1R)-1,2-dimethylpropyl]-1,6,6a,7,8,9,10,10a,10b,11,12,12a-dodecahydro-1,6a,8,10a-tetramethyl-4H-1,4a-propano-2H-phenanthro[1,2-c]pyran-7-carboxylic acid] | 26.4 nM |
| CC(C)[C@@H](C)[C@@]1(C)CC[C@]2(C)[C@H]3CC[C@@H]4[C@@]5(COC[C@@]4(C)[C@@H](OC[C@@](C)(N)C(C)C)[C@H](n4nnc(N)n4)C5)C3=CC[C@@]2(C)[C@@H]1C(N)=O [Example 51, (1S,4aR,6aS,7R,8R,10aR,10bR,12aR,14R,15R)-15-[[(2S)-2-amino-2,3-dimethylbutyl]oxy]-14-(5-amino-2H-tetrazol-2-yl)-8-[(1 R)-1,2-dimethylpropyl]-1,6,6a,7,8,9,10,10a,10b,11,12,12a-dodecahydro-1,6a,8,10a-tetramethyl-4H-1,4a-propano-2H-phenanthro[1,2-c]pyran-7-carboxamide] | 3.06 nM |
| CN[C@@](C)(CO[C@H]1[C@H](n2nnc(N)n2)C[C@@]23COC[C@]1(C)[C@@H]2CC[C@H]1C3=CC[C@@]2(C)[C@H](C(=O)O)[C@@](C)([C@H](C)C(C)C)CC[C@]12C)C(C)C [Example 52, (1S,4aR,6aS,7R,8R,10aR,10bR,12aR,14R,15R)-14-(5-amino-2H-tetrazol-2-yl)-15-[[(2R)-2,3-dimethyl-2-(methylamino)butyl]oxy]-8-[(1R)-1,2-dimethylpropyl]-1,6,6a,7,8,9,10,10a,10b,11,12,12a-dodecahydro-1,6a,8,10a-tetramethyl-4H-1,4a-propano-2H-phenanthro[1,2-c]pyran-7-carboxylic acid] | 2.99 nM |
| CCCN[C@@](C)(CO[C@H]1[C@H](n2nnc(N)n2)C[C@@]23COC[C@]1(C)[C@@H]2CC[C@H]1C3=CC[C@@]2(C)[C@H](C(=O)O)[C@@](C)([C@H](C)C(C)C)CC[C@]12C)C(C)C [Example 55, (1S,4aR,6aS,7R,8R,10aR,10bR,12aR,14R,15R)-14-(5-amino-2H-tetrazol-2-yl)-15-[[(2R)-2,3-dimethyl-2-(propylamino)butyl]oxy]-8-[(1R)-1,2-dimethylpropyl]-1,6,6a,7,8,9,10,10a,10b,11,12,12a-dodecahydro-1,6a,8,10a-tetramethyl-4H-1,4a-propano-2H-phenanthro[1,2-c]pyran-7-carboxylic acid] | 11.5 nM |

Next, values leading:

| IC50 | SMILES |
| --- | --- |
| 81.8 nM | CC(=O)Nc1nnnn1[C@@H]1C[C@@]23COC[C@](C)([C@@H]2CC[C@H]2C3=CC[C@@]3(C)[C@H](C(=O)O)[C@@](C)([C@H](C)C(C)C)CC[C@]23C)[C@H]1OC[C@](C)(N)C(C)C [Example 38A, (1S,4aR,6aS,7R,8R,10aR,10bR,12aR,14R,15R)-14-[5-(acetylamino)-1H-tetrazol-1-yl]-15-[[(2R)-2-amino-2,3-dimethylbutyl]oxy]-8-[(1R)-1,2-dimethylpropyl]-1,6,6a,7,8,9,10,10a,10b,11,12,12a-dodecahydro-1,6a,8,10a-tetramethyl-4H-1,4a-propano-2H-phenanthro[1,2-c]pyran-7-carboxylic acid] |
| 15.5 nM | CN[C@@](C)(CO[C@H]1[C@H](n2nnc(NC(C)=O)n2)C[C@@]23COC[C@]1(C)[C@@H]2CC[C@H]1C3=CC[C@@]2(C)[C@H](C(=O)O)[C@@](C)([C@H](C)C(C)C)CC[C@]12C)C(C)C [Example 39B, (1S,4aR,6aS,7R,8R,10aR,10bR,12aR,14R,15R)-14-[5-(acetylamino)-2H-tetrazol-2-yl]-15-[[(2R)-2,3-dimethyl-2-(methylamino)butyl]oxy]-8-[(1R)-1,2-dimethylpropyl]-1,6,6a,7,8,9,10,10a,10b,11,12,12a-dodecahydro-1,6a,8,10a-tetramethyl-4H-1,4a-propano-2H-phenanthro[1,2-c]pyran-7-carboxylic acid] |
| 199 nM | Cc1nnnn1[C@@H]1C[C@@]23COC[C@](C)([C@@H]2CC[C@H]2C3=CC[C@@]3(C)[C@H](C(=O)O)[C@@](C)([C@H](C)C(C)C)CC[C@]23C)[C@H]1OCCN [Example 41A, (1S,4aR,6aS,7R,8R,10aR,10bR,12aR,14R,15R)-15-(2-aminoethoxy)-8-[(1R)-1,2-dimethylpropyl]-14-(5-methyl-1H-tetrazol-1-yl)-1,6,6a,7,8,9,10,10a,10b,11,12,12a-dodecahydro-1,6a,8,10a-tetramethyl-4H-1,4a-propano-2H-phenanthro[1,2-c]pyran-7-carboxylic acid] |
| 85.1 nM | CC(C)[C@@H](C)[C@@]1(C)CC[C@]2(C)[C@H]3CC[C@@H]4[C@@]5(COC[C@@]4(C)[C@@H](OC[C@](C)(N)C(C)C)[C@H](n4nnc(CO)n4)C5)C3=CC[C@@]2(C)[C@@H]1C(=O)O [Example 43B, (1S,4aR,6aS,7R,8R,10aR,10bR,12aR,14R,15R)-15-[[(2R)-2-amino-2,3-dimethylbutyl]oxy]-8-[(1R)-1,2-dimethylpropyl]-14-[5-(hydroxymethyl)-2H-tetrazol-2-yl]-1,6,6a,7,8,9,10,10a,10b,11,12,12a-dodecahydro-1,6a,8,10a-tetramethyl-4H-1,4a-propano-2H-phenanthro[1,2-c]pyran-7-carboxylic acid] |
